Test results published in PubChem BioAssay AID248 (DTP/NCI, 2004).
“And” between values parts separate entries of the source, which are not always exact repeats. Equal values may be shown once. Inconclusive results and toxic doses are left out. Cut-off read from the data, not from the text of the source: active = T/C of 150% or more; inactive = T/C below 125%.

Test system: L1210 leukemia ip in BDF1 mice, survival T/C
Experiment: NCI In Vivo Anticancer Drug Screen. Data for tumor model L1210 Leukemia (intraperitoneal) in B6D2F1 (BDF1) mice
Conditions: endpoint: mean survival time, higher = longer survival
Method in brief: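 In this screen, tumor-bearing mice given compound are compared to those given vehicle, and their survival values are reported as a treated-to-control quotient.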

[1] = dose: 100.0 mg/kg/injection, schedule: Q01DX009 (ip), vehicle: Klucel (hydroxypropylcellulose) (HPC)
[2] = dose: 100.0 mg/kg/injection, schedule: Q04DX003 (ip), vehicle: saline
[3] = dose: 200.0 mg/kg/injection, schedule: Q01DX009 (ip), vehicle: Klucel (hydroxypropylcellulose) (HPC)
[4] = dose: 200.0 mg/kg/injection, schedule: Q04DX003 (ip), vehicle: saline
[5] = dose: 400.0 mg/kg/injection, schedule: Q01DX009 (ip), vehicle: Klucel (hydroxypropylcellulose) (HPC)
[6] = dose: 400.0 mg/kg/injection, schedule: Q04DX003 (ip), vehicle: saline
[7] = dose: 100.0 mg/kg/injection, schedule: Q04DX003 (ip), vehicle: Klucel (hydroxypropylcellulose) (HPC)
[8] = dose: 200.0 mg/kg/injection, schedule: Q04DX003 (ip), vehicle: Klucel (hydroxypropylcellulose) (HPC)
[9] = dose: 400.0 mg/kg/injection, schedule: Q04DX003 (ip), vehicle: Klucel (hydroxypropylcellulose) (HPC)
[10] = dose: 12.5 mg/kg/injection, schedule: Q04DX003 (ip), vehicle: saline
[11] = dose: 100.0 mg/kg/injection, schedule: Q01DX001 (ip), vehicle: saline

Measured: T/C

Oc1cccc(-c2cccc(OCCCCCCCCCCBr)c2)c1
inactive: dose: 12.5 mg/kg/injection, schedule: Q01DX009 (ip), vehicle: DMSO 108 % of control | dose: 25.0 mg/kg/injection, schedule: Q01DX009 (ip), vehicle: DMSO 94 % of control | dose: 100.0 mg/kg/injection, schedule: Q04DX003 (ip), vehicle: DMSO 92 % of control | dose: 200.0 mg/kg/injection, schedule: Q04DX003 (ip), vehicle: DMSO 91 % of control

CCC(OBr)C1COC(Nc2ccccc2)O1 (centres undefined)
inactive: [1] 96 % of control | [2] 95 % of control | [3] 96 % of control | [4] 105 % of control | [5] 103 % of control | [6] 101 % of control

C/C=C/C=C/COC(=O)CCCCCCCC
inactive: dose: 100.0 mg/kg/injection, schedule: Q04DX002 (ip), vehicle: saline 103 % of control | dose: 200.0 mg/kg/injection, schedule: Q04DX002 (ip), vehicle: saline 103 % of control | dose: 400.0 mg/kg/injection, schedule: Q04DX002 (ip), vehicle: saline 108 % of control

O=C(/C=C/c1ccc2c(c1)OCO2)c1ccc2c(c1)OCO2
inactive: [1] 106 % of control | [7] 98 % of control | [3] 100 % of control | [8] 104 % of control | [5] 100 % of control | [9] 101 % of control

O=c1c(N=Nc2ccc(Br)cc2)c(O)n(-c2ccc(I)cc2)c(=S)n1-c1ccccc1
inactive: dose: 50.0 mg/kg/injection, schedule: Q01DX001 (ip), vehicle: Klucel (hydroxypropylcellulose) (HPC) 97 % of control | dose: 100.0 mg/kg/injection, schedule: Q01DX001 (ip), vehicle: Klucel (hydroxypropylcellulose) (HPC) 108 % of control | dose: 200.0 mg/kg/injection, schedule: Q01DX001 (ip), vehicle: Klucel (hydroxypropylcellulose) (HPC) 121 % of control

CCOC(=O)n1ncnc1N
inactive: dose: 100.0 mg/kg/injection, schedule: Q01DX009 (ip), vehicle: saline 94 % of control | [2] 91 % of control | dose: 200.0 mg/kg/injection, schedule: Q01DX009 (ip), vehicle: saline 98 % of control | [4] 98 % of control | dose: 400.0 mg/kg/injection, schedule: Q01DX009 (ip), vehicle: saline 104 % of control | [6] 95 % of control

CCCCC1CCCCC1
inactive: dose: 100.0 mg/kg/injection, schedule: Q01DX009 (ip), vehicle: saline with Tween-80 106 % of control | dose: 200.0 mg/kg/injection, schedule: Q01DX009 (ip), vehicle: saline with Tween-80 98 % of control | dose: 400.0 mg/kg/injection, schedule: Q01DX009 (ip), vehicle: saline with Tween-80 96 % of control

Nc1cccc(CNc2ccc(C(=O)O)cc2)c1
inactive: dose: 100.0 mg/kg/injection, schedule: Q01DX001 (ip), vehicle: saline with Tween-80 113 % of control | dose: 200.0 mg/kg/injection, schedule: Q01DX001 (ip), vehicle: saline with Tween-80 103 % of control | dose: 400.0 mg/kg/injection, schedule: Q01DX001 (ip), vehicle: saline with Tween-80 98 % of control

CSc1ccc(/C=N/NC(N)=S)c(SC)n1
inactive: [7] 98 % of control | [8] 98 % of control | [9] 96 % of control

CCCCCCCCCCOC(=O)C[n+]1cccc(C(=O)Nc2ccc(Cl)cc2)c1
inactive: [10] 97 % of control | dose: 25.0 mg/kg/injection, schedule: Q04DX003 (ip), vehicle: saline 105 % of control | dose: 50.0 mg/kg/injection, schedule: Q04DX003 (ip), vehicle: saline 90 % of control

CN(C)Cc1cccc2ccccc12
inactive: dose: 50.0 mg/kg/injection, schedule: Q01DX009 (ip), vehicle: Klucel (hydroxypropylcellulose) (HPC) 95 % of control

Cc1cccc(Cl)c1NC(=O)c1cccc([N+](=O)[O-])c1
inactive: [1] 96 % of control | [3] 90 % of control | [5] 93 % of control

C[Si](C)(C)Cc1ccc(Cl)cc1
inactive: dose: 111.0 mg/kg/injection, schedule: Q01DX Z (ip), vehicle: saline 104 % of control | dose: 166.0 mg/kg/injection, schedule: Q01DX Z (ip), vehicle: saline 91 % of control | dose: 250.0 mg/kg/injection, schedule: Q01DX Z (ip), vehicle: saline 98 % of control

O=C(Nc1ccc(I)cc1)c1cc([N+](=O)[O-])ccc1O
inactive: dose: 17.0 mg/kg/injection, schedule: Q02DX010 (ip), vehicle: carboxymethylcellulose (CMC) 99 % of control | dose: 34.0 mg/kg/injection, schedule: Q02DX010 (ip), vehicle: carboxymethylcellulose (CMC) 103 % of control | dose: 68.0 mg/kg/injection, schedule: Q02DX010 (ip), vehicle: carboxymethylcellulose (CMC) 97 % of control | dose: 136.0 mg/kg/injection, schedule: Q02DX010 (ip), vehicle: carboxymethylcellulose (CMC) 95 % of control | dose: 272.0 mg/kg/injection, schedule: Q02DX010 (ip), vehicle: carboxymethylcellulose (CMC) 98 % of control

CC(=O)NC1C(OCC(NC(=O)OCc2ccccc2)C(=O)NC(CC(=O)OCc2ccccc2)C(=O)OCc2ccccc2)OC(COC(C)=O)C(OC(C)=O)C1OC(C)=O (centres undefined)
inactive: dose: 50.0 mg/kg/injection, schedule: Q04DX002 (ip), vehicle: Klucel (hydroxypropylcellulose) (HPC) 97 % of control | dose: 100.0 mg/kg/injection, schedule: Q04DX002 (ip), vehicle: Klucel (hydroxypropylcellulose) (HPC) 97 % of control | dose: 200.0 mg/kg/injection, schedule: Q04DX002 (ip), vehicle: Klucel (hydroxypropylcellulose) (HPC) 87 % of control

COC(=O)c1cc(-c2ccccc2)[nH]c1-c1ccc2ccccc2n1
inactive: dose: 100.0 mg/kg/injection, schedule: Q01DX001 (ip), vehicle: steriod suspending solution 100 % of control | dose: 200.0 mg/kg/injection, schedule: Q01DX001 (ip), vehicle: steriod suspending solution 100 % of control | dose: 400.0 mg/kg/injection, schedule: Q01DX001 (ip), vehicle: steriod suspending solution 94 % of control

Cc1cccc(NC(=O)CCc2ccc(Cl)cc2)n1
inactive: [11] 95 % of control

CC(=O)Nc1cc(F)c([N+](=O)[O-])cc1[N+](=O)[O-]
inactive: dose: 0.62 mg/kg/injection, schedule: Q01DX009 (ip), vehicle: saline 96 % of control | dose: 1.25 mg/kg/injection, schedule: Q01DX009 (ip), vehicle: saline 102 % of control | dose: 2.5 mg/kg/injection, schedule: Q01DX009 (ip), vehicle: saline 93 % of control | dose: 2.5 mg/kg/injection, schedule: Q01DX015 (ip), vehicle: carboxymethylcellulose (CMC) 95 % of control | dose: 3.13 mg/kg/injection, schedule: Q04DX003 (ip), vehicle: saline with Tween-80 106 % of control | dose: 5.0 mg/kg/injection, schedule: Q01DX009 (ip), vehicle: saline 104 % of control | dose: 5.0 mg/kg/injection, schedule: Q01DX015 (ip), vehicle: carboxymethylcellulose (CMC) 95 % of control | dose: 6.25 mg/kg/injection, schedule: Q04DX003 (ip), vehicle: saline with Tween-80 90 % of control | dose: 10.0 mg/kg/injection, schedule: Q01DX009 (ip), vehicle: saline with Tween-80 92 % of control | dose: 10.0 mg/kg/injection, schedule: Q01DX009 (ip), vehicle: saline 96 % of control | dose: 10.0 mg/kg/injection, schedule: Q01DX015 (ip), vehicle: carboxymethylcellulose (CMC) 91 % of control | dose: 12.5 mg/kg/injection, schedule: Q04DX003 (ip), vehicle: saline with Tween-80 94 % of control | [10] 86 % of control | dose: 20.0 mg/kg/injection, schedule: Q01DX009 (ip), vehicle: saline with Tween-80 103 % of control | dose: 25.0 mg/kg/injection, schedule: Q04DX003 (ip), vehicle: saline with Tween-80 105 % of control | dose: 50.0 mg/kg/injection, schedule: Q01DX001 (ip), vehicle: saline 104 % of control and 106 % of control | [11] 95 % of control and 91 % of control | dose: 200.0 mg/kg/injection, schedule: Q01DX001 (ip), vehicle: saline 112 % of control | dose: 400.0 mg/kg/injection, schedule: Q01DX001 (ip), vehicle: saline 106 % of control

C[C@]1(O)CC[C@H]2[C@@H]3CCC4=CC(=O)CCC4=C3C=C[C@@]21C
inactive: [1] 96 % of control | dose: 100.0 mg/kg/injection, schedule: Q04DX003 (sc), vehicle: Klucel (hydroxypropylcellulose) (HPC) 98 % of control | [3] 96 % of control | dose: 200.0 mg/kg/injection, schedule: Q04DX003 (sc), vehicle: Klucel (hydroxypropylcellulose) (HPC) 95 % of control | [5] 110 % of control | dose: 400.0 mg/kg/injection, schedule: Q04DX003 (sc), vehicle: Klucel (hydroxypropylcellulose) (HPC) 101 % of control
